pIC50, pKi: −log10 of the molar value.
Key:
[1] = Metabolic stability in rat liver microsomes assessed as parent compound remaining at 0.5 uM incubated for 10 mins in presence of NADPH by LC-MS/MS analysis; assay type: ADME, Microsome; settings: read-out: Stability
[2] = target: T1, AP2-associated protein kinase 1 (Homo sapiens, UniProt Q2M2I8); assay: Inhibition of full length human AAK1 expressed in HEK293F cells assessed as suppression of AP2 phosphorylation measured after 3 hrs by Western blot analysis based cellular assay; assay type: cell-based
T1 sequence (Q2M2I8 whole entry): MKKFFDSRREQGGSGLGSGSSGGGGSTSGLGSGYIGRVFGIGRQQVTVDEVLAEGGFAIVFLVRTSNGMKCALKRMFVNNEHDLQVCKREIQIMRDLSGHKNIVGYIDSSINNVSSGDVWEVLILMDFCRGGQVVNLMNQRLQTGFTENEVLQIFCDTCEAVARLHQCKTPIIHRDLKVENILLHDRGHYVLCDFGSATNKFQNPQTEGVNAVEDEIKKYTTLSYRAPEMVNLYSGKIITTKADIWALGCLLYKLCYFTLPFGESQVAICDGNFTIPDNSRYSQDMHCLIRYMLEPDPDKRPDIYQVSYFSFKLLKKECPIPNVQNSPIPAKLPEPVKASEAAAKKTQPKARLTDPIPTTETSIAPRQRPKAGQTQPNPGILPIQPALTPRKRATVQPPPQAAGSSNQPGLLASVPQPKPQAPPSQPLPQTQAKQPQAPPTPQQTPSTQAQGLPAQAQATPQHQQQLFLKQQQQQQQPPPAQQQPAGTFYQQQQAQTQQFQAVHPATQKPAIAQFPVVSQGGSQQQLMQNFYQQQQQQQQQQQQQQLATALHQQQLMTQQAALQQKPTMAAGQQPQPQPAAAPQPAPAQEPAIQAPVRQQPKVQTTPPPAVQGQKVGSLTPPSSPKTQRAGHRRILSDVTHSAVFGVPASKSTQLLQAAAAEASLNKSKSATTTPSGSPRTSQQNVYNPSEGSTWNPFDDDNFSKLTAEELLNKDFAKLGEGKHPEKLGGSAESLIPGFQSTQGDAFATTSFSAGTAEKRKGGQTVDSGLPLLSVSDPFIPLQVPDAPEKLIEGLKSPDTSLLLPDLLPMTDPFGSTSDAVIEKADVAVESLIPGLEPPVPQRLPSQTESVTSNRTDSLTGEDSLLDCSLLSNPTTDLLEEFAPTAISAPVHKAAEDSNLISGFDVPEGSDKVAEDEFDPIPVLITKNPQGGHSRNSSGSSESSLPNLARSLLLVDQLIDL

Cytochrome P450 3A4 = Cytochrome P450 3A4 (Homo sapiens, UniProt P08684); assay: Inhibition of CYP3A4 (unknown origin) incubated for 10 mins in presence of NADPH by LC-MS/MS analysis; assay type: ADME
Chain of Cytochrome P450 3A4 (P08684 whole entry): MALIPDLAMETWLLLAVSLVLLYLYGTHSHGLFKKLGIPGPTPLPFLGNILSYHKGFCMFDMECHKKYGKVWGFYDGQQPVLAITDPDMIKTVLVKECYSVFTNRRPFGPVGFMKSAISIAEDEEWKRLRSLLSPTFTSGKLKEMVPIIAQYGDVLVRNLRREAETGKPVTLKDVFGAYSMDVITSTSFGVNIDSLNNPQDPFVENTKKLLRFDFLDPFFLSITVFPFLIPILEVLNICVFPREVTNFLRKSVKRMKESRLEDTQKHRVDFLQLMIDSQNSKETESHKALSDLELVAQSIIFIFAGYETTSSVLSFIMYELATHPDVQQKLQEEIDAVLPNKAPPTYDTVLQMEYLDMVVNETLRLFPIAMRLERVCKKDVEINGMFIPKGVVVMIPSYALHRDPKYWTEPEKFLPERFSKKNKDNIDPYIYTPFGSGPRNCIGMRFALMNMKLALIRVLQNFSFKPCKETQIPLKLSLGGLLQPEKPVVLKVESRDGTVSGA

[3] = Metabolic stability in human liver microsomes assessed as parent compound remaining at 0.5 uM incubated for 10 mins in presence of NADPH by LC-MS/MS analysis; assay type: ADME, Microsome; settings: read-out: Stability
[4] = target: AP2-associated protein kinase 1 (Mus musculus, UniProt Q3UHJ0); assay: Displacement of 3H-LP-927443 from AAK1 in C57BL6 mouse brain homogenate assessed as inhibition constant incubated for 1 hr by liquid scintillation counter analysis; assay type: tissue-based
Chain of AP2-associated protein kinase 1 (Mus musculus, UniProt Q3UHJ0) (Q3UHJ0 whole entry): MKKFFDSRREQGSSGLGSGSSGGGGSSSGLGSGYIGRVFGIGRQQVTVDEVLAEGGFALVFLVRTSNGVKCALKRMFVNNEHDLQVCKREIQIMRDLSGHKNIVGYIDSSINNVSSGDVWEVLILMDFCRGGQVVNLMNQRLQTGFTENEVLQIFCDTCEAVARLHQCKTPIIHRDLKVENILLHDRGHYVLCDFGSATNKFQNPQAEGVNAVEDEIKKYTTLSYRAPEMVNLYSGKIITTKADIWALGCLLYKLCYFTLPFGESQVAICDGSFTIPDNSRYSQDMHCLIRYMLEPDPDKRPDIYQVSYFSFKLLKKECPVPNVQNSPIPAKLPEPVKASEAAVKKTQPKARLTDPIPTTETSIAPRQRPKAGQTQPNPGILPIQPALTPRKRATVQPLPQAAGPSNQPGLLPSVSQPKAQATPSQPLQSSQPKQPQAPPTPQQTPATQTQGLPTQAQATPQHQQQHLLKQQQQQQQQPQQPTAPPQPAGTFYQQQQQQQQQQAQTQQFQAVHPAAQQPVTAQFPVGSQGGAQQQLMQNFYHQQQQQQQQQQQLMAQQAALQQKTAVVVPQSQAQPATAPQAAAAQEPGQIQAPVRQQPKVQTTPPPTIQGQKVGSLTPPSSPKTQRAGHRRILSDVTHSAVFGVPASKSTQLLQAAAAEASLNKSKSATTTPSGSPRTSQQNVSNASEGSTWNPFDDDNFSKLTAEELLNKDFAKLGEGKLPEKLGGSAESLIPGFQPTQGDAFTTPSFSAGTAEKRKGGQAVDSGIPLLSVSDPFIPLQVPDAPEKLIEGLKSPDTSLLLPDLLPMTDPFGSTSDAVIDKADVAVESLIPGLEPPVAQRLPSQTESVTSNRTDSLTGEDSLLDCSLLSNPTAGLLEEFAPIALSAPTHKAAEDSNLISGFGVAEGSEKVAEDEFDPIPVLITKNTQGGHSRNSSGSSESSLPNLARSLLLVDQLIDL

[5] = target: T1, AP2-associated protein kinase 1; assay: Inhibition of bacterially expressed GST-Xa-tagged human AAK1 using 5-FAM-labelled Aha-KEEQSQITSQVTGQIGWR-NH2 peptide as substrate incubated for 3 hrs in presence of ATP by electrophoretic analysis
[6] = Metabolic stability in mouse liver microsomes assessed as parent compound remaining at 0.5 uM incubated for 10 mins in presence of NADPH by LC-MS/MS analysis; assay type: ADME, Microsome; settings: liver microsomes, read-out: Stability
[7] = Efflux ratio of permeability in human Caco-2 cells; assay type: ADME, cell-based
[8] = Ratio of drug concentration in brain to plasma in Sprague-Dawley rat at 3 mg/kg, po measured at 2 hrs post dose; assay type: ADME, organism-based
[9] = Cardiotoxicity in aortic ring (unknown origin) assessed as relaxation of phenylephrine induced aortic ring contraction at 10 uM incubated for 1 hr; assay type: toxicity, tissue-based, Aorta; design: scale not given: the % may be the effect or the level left; settings: human
[10] = target: Citron Rho-interacting kinase (Homo sapiens, UniProt O14578); assay: Inhibition of CRIK (unknown origin)
Chain of Citron Rho-interacting kinase (O14578 whole entry): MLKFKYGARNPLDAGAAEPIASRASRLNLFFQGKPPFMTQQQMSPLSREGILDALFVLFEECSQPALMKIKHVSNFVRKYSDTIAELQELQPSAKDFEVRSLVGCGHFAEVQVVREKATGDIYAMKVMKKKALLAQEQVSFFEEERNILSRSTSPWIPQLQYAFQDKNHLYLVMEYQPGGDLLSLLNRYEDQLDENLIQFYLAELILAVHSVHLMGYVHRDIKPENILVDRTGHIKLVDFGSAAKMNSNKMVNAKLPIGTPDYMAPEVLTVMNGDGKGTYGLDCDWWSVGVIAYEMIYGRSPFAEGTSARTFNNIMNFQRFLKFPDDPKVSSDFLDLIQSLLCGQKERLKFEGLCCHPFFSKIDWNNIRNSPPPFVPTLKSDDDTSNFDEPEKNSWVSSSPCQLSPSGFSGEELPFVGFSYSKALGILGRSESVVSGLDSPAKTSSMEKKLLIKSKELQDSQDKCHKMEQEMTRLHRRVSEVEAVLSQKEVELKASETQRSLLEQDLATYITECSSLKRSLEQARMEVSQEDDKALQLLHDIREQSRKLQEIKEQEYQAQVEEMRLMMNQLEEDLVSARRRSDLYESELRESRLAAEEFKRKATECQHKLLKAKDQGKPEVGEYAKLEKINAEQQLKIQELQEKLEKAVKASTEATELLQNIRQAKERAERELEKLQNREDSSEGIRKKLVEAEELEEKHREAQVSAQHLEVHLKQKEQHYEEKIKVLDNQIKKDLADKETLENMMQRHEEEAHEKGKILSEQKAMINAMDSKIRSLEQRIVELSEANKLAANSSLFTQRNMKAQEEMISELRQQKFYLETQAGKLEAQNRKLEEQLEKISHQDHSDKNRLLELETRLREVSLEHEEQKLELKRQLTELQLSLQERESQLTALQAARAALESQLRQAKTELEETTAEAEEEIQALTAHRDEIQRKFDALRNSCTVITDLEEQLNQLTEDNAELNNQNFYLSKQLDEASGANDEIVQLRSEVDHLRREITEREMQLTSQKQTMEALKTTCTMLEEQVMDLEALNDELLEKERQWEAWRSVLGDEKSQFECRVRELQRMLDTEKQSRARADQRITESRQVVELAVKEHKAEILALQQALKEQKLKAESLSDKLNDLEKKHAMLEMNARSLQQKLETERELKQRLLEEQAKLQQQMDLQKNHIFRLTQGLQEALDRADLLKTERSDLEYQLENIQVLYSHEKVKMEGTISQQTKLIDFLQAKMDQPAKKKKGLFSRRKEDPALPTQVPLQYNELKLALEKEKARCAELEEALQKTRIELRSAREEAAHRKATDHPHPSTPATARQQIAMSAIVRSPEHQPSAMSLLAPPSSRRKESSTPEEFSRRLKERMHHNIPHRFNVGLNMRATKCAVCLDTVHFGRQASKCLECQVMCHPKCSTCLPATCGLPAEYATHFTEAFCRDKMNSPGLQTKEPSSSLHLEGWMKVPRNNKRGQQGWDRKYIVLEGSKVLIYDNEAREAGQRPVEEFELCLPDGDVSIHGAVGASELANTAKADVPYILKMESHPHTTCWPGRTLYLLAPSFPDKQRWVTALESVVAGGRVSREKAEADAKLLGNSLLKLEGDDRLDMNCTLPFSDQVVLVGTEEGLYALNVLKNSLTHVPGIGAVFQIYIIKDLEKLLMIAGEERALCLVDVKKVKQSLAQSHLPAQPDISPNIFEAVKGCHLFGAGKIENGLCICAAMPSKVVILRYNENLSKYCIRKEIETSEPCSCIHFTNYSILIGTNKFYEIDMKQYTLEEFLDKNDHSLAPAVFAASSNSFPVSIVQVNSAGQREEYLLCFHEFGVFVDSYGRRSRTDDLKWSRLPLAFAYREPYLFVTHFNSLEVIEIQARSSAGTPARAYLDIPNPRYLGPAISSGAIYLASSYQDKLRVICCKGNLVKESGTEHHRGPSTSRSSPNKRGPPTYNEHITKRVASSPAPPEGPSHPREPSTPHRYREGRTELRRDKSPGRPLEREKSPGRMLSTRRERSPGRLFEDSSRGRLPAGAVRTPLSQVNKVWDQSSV

[11] = target: MAP kinase-interacting serine/threonine-protein kinase 1 (Homo sapiens, UniProt Q9BUB5); assay: Inhibition of MNK1 (unknown origin)
Chain of MAP kinase-interacting serine/threonine-protein kinase 1 (Q9BUB5 whole entry): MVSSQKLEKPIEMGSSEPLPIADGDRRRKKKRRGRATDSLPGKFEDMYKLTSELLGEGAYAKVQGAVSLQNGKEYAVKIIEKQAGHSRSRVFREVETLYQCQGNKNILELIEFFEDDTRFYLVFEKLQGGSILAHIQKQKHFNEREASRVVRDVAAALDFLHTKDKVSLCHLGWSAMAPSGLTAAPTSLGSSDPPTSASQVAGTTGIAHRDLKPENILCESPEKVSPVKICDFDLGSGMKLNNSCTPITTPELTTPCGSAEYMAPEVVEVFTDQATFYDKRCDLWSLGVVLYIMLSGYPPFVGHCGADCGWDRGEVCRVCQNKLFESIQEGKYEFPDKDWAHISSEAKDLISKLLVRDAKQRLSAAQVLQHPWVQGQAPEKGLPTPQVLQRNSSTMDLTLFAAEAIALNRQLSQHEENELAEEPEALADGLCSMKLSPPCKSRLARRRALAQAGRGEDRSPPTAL

[12] = target: BMP-2-inducible protein kinase (Homo sapiens, UniProt Q9NSY1); assay: Inhibition of BIKE (unknown origin)
[13] = Drug concentration in STZ-induced diabetic peripheral neuropathic mechanical allodynia in overnight fasted Sprague-Dawley rat spinal cord at 1 mg/kg, po measured at 5.75 hrs post dose; assay type: ADME, organism-based; settings: read-out: Ct
[14] = Ratio of drug concentration in spinal cord to plasma in STZ-induced diabetic peripheral neuropathic mechanical allodynia in overnight fasted Sprague-Dawley rat at 1 mg/kg, po measured at 5.75 hrs post dose; assay type: ADME, organism-based
[15] = Plasma concentration in STZ-induced diabetic peripheral neuropathic mechanical allodynia in overnight fasted Sprague-Dawley rat at 1 mg/kg, po measured at 5.75 hrs post dose; assay type: ADME, organism-based

Row | remaining at 10 min, 0.5 µM [1] | pIC50 [2] | pIC50 (Cytochrome P450 3A4) | remaining at 10 min, 0.5 µM [3] | pKi [4] | pIC50 [5] | remaining at 10 min, 0.5 µM [6] | efflux ratio [7] | Kp at 2 h [8] | pIC50 [10] | pIC50 [11] | pIC50 [12] | concentration at 5.75 h [13] | Kp at 5.75 h [14] | concentration at 5.75 h [15] | Structure (SMILES) | Activity [9]
1 | 99% | 8.96 | 5.41 | 91% | 10.10 | 9.40 | 64% |  |  |  |  |  |  |  |  | CC(=O)Nc1cc(-c2ccc(OC[C@@H](N)CC(C)C)c(C)c2)ccn1 | 
2 | 92% | 8.42 | 5.16 | 96% | 9.02 |  | 58% | 4.2 |  |  |  |  |  |  |  | COc1cc(-c2ccnc(NC(C)=O)c2)ccc1OC[C@@H](N)CC(C)C | 
3 | 80% | 9.00 | 4.79 | 100% | 10.30 | 9.40 | 33% |  |  |  |  |  |  |  |  | COC(=O)Nc1cc(-c2ccc(OC[C@@](C)(N)CC(C)C)c(C3CC3)c2)ccn1 | 
4 | 83% | 9.30 | 5.59 | 87% | 10.40 |  | 84% | 6.3 | 0.45 |  |  |  |  |  |  | CC(=O)Nc1cc(-c2ccc(OC[C@@H](N)CC(C)C)c(C#N)c2)ccn1 | 
5 | 91% | 8.32 | 6.33 | 74% | 8.82 | 8.30 | 69% |  |  |  |  |  |  |  |  | CC(=O)Nc1cc(-c2cc(F)c(OC[C@@H](N)CC(C)C)c(C(F)(F)F)c2)ccn1 | 
6 | 88% | 9.10 | 4.89 | 57% | 10.15 | 9.30 | 69% |  |  |  |  |  |  |  |  | COC(=O)Nc1cc(-c2ccc(OC[C@@](C)(N)CC(C)C)c(C#N)c2)ccn1 | 
7 | 87% | 8.80 | 5.02 | 54% | 10.15 | 9.10 | 27% |  |  |  |  |  |  |  |  | CC(=O)Nc1cc(-c2ccc(OC[C@@](C)(N)CC(C)C)c(OC(F)(F)F)c2)ccn1 | 
8 | 74% | 8.82 | 5.16 | 80% | 10.30 | 9.52 | 68% |  |  |  |  |  |  |  |  | COC(=O)Nc1cc(-c2ccc(OC[C@@](C)(N)CC(C)C)c(C(F)(F)F)c2)ccn1 | 
9 | 80% | 9.35 | 6.64 | 91% | 10.40 | 9.30 | 35% |  |  |  |  |  |  |  |  | CC(=O)Nc1cc(-c2ccc(OC[C@@H](N)CC(C)C)c(OC(F)(F)F)c2)ccn1 | 
10 | 76% | 8.39 | 6.74 | 91% | 10.10 | 9.10 | 53% |  |  |  |  |  |  |  |  | COC(=O)Nc1cc(-c2ccc(OC[C@@H](N)CC(C)C)c(-c3ccno3)c2)ccn1 | 
11 | 90% | 9.40 | 4.85 | 66% | 10.40 | 9.40 | 54% |  |  |  |  |  |  |  |  | CC(=O)Nc1cc(-c2ccc(OC[C@@](C)(N)CC(C)C)c(C(F)(F)F)c2)ccn1 | 
12 | 82% | 9.12 | 6.48 | 91% | 10.40 | 9.40 | 53% |  |  |  |  |  |  |  |  | CC(=O)Nc1cc(-c2ccc(OC[C@@H](N)CC(C)C)c(C(F)(F)F)c2)ccn1 | 
13 | 100% | 9.70 | 5.59 | 89% | 10.22 | 9.30 | 86% |  |  |  |  |  |  |  |  | CC(=O)Nc1cc(-c2ccc(OC[C@@H](N)CC(C)C)c(Cl)c2)ccn1 | 
14 | 90% | 8.17 | 5.15 | 78% | 9.22 | 8.89 | 70% |  |  |  |  |  |  |  |  | CC(=O)Nc1cc(-c2cc(F)c(OC[C@@H](N)CC(C)C)cc2F)ccn1 | 
15 | 78% | 9.22 | < 4.70 | 64% | 10.05 | 9.22 | 71% | 2.5 |  |  |  |  |  |  |  | CC(=O)Nc1cc(-c2ccc(OC[C@@](C)(N)CC(C)C)c(C#N)c2)ccn1 | 
16 | 92% | 8.43 | < 4.70 | 91% | 9.62 | 9.10 | 70% |  |  |  |  |  |  |  |  | CC(=O)Nc1cc(-c2ccc(OC[C@@](C)(N)CC(C)C)c(F)c2)ccn1 | 
17 | 76% | 7.92 | < 4.70 | 83% | 9.52 | 8.85 | 80% |  |  |  |  |  |  |  |  | Cc1cc(-c2ccnc(C(F)F)c2)ncc1OC[C@@](C)(N)CC(C)C | 
18 | 86% | 9.22 | < 4.70 | 88% | 10.40 | 9.30 | 69% |  |  |  |  |  |  |  |  | COC(=O)Nc1cc(-c2ccc(OC[C@@](C)(N)CC(C)C)c(C(F)F)c2)ccn1 | 
19 | 83% | 9.70 | 5.11 | 81% | 10.40 | 9.22 | 43% |  |  |  |  |  |  |  |  | COC(=O)Nc1cc(-c2ccc(OC[C@@](C)(N)CC(C)C)c(OC(F)(F)F)c2)ccn1 | 
20 | 84% | 9.30 |  | 74% | 10.30 | 9.22 | 57% |  |  |  |  |  |  |  |  | CC(=O)Nc1cc(-c2ccc(OC[C@@](C)(N)CC(C)C)c(C(F)F)c2)ccn1 | 
21 | 73% | 8.72 | < 4.70 | 86% | 9.15 |  | 71% |  |  | 5.89 | 5.72 | 5.82 |  |  |  | Cc1cc(-c2cc(Cl)c(OC[C@@](C)(N)CC(C)C)cn2)ccn1 | 50%
22 | 79% |  | < 4.70 | 86% | 8.60 | 8.42 | 59% |  |  |  |  |  |  |  |  | COC(=O)Nc1cc(-c2cnc(OC[C@@](C)(N)CC(C)C)c(OC)c2)ccn1 (racemic) | 91%
23 | 83% | 8.01 |  | 93% | 9.59 | 8.35 | 70% |  |  |  |  |  |  |  |  | COC(=O)Nc1cc(-c2ccc(OC[C@@](C)(N)CC(C)C)c(C)c2C)ccn1 (racemic) | 
24 | 85% | 8.85 | 6.13 | 81% | 10.05 | 9.30 | 66% |  |  |  |  |  |  |  |  | COC(=O)Nc1cc(-c2ccc(OC[C@@](C)(N)CC(C)C)c(Cl)c2)ccn1 (racemic) | 
25 | 96% | 9.10 | < 4.70 | 98% | 10.10 | 9.10 | 75% |  |  |  |  |  |  |  |  | COC(=O)Nc1cc(-c2ccc(OC[C@@](C)(N)CC(C)C)c(C)c2)ccn1 (racemic) | 
26 |  |  |  |  |  |  |  |  |  |  |  |  | 245 nM | 2.9 | 84 nM | CC(C)C[C@](C)(N)COc1ccc(-c2ccnc(C(F)F)c2)nc1C(F)F [PILAVAPADIN] | 

Source: ChEMBL document CHEMBL5154787 (J Med Chem, 2022)
